Assay results as given in patent publication US20250109127A1, “METHODS OF USE OF PHENOXYPROPYLAMINE COMPOUNDS TO TREAT DEPRESSION” (Minerva Neurosciences, Inc., priority 2013, published 2025).
“And” between values parts separate entries of the source, which are not always exact repeats. Equal values may be shown once. Where a name gives a salt, the structure may show the parent alone.

Tested on: HVA release in the rat prefrontal cortex
Assay: Microdialysis: HVA release in prefrontal cortex after I.P. administration
Assay type: in vivo
Details: for HVA release (% of basal levels) measured in dialysates: individual animals, hydrochloride, 3 mg/kg; for HVA release (% of basal levels) measured in dialysates, MEAN / HVA (% of respective basal) MEAN: n = 8; for HVA (% of respective basal) MEAN: SON-117 group 0.1 mg/kg I.P.
Description: The aim of the study was to evaluate, using microdialysis, the effects of an intraperitoneal (I.P.) administration in rats of three different doses of SON-117 on dopamine and its metabolites, serotonin and its metabolite (5-HIAA), and norepinephrine levels in prefrontal cortex.
Thirty-two adult male Wistar rats were used for the whole study (4 groups of eight animals planned for the study, Table 1).
Surgery was performed on rats weighing about 300 g at the beginning of the experiments. Rats were anaesthetized with Ketamine (50 mg/kg) & Xylazine (15 mg/kg) by intramuscular administration. The animals were placed in a stereotaxic apparatus in the flat-skull position at a constant setting of −3.3 mm between ear bars and the incisor bar. The animals were treated with a local anesthesic (xylocaine 1%, Astra Zeneca) and an analgesic (Temgesic, from Schering Plough, 0.05 mg/kg, s.c.). A rostrocaudal midline incision was made with a lancet to expose the dorsal skull surface. The “stereotaxic zero” was defined by the Bregma in accordance with Paxinos and Watson's atlas (1986). A hole was drilled in the skull with a drill and the meninges were pierced with a sterile needle to implant a CMA12 guide cannula which later received the dialysis probe.
Coordinates used for implanting guide cannula in prefrontal cortex from Bregma were anteroposterior 3.7 mm, mediolateral 0.8 mm, and dorsoventral −2 mm (top of the probe was at −5 mm). The guide cannula was fixed to the skull with two stainless steel screws (1.88 mm outside diameter) anchored. An application of dental cement was added. A plastic collar allowed each animal to be tethered to a Swivel assembly of the CMA 120 awake animal system. Following surgery, rats were kept in individual cages and allowed to recover for a minimum of 3-5 days before the experimentation. The rats were handled and put in plastic bowl for 10 min at least every day to habituate the animals to their new environment for the dialysis. An I.P. administration with saline was also performed every day.
Dialysis probes (CMA12/3 mm, membrane, 20 kD cut-off, Carnegie Medicine, Stockholm, Sweden), were carefully washed before inserting into the guide cannula. The wash was performed with the artificial cerebrospinal fluid (aCSF) medium (NaCl 147 mM, KCl 2.7 mM, CaCl2 1.2 mM, MgCl2 0.85 mM) at room temperature. The dialysis system was then equilibrated at 20° C. at a perfusion rate of 1 μl/min with a Carnegie pump (CMA100). All catheters (FEP tubing, internal volume of 1.2 μl/10 cm, and tubing adaptors) used for microdialysis were treated in the same conditions.
The probes duly prepared were inserted into the guide cannula and the CMA120 Swivel assembly secured to the animal using a plastic collar. Flow through the dialysis probe with aCSF was maintained at a rate of 1 μl/min during the whole experimentation. The first four fractions (corresponding to 2 hours) were discarded to avoid the effects of parenchymal disturbance and to ensure that an approximate steady-state level was reached. Fractions were then collected over a period of 8.5 h during which time the animals remained quiet. The dialysates were automatically collected with an autosampler (microfraction collector CMA 140, Carnegie Medicin) and stored at −80° C. until analysis. […] Perfusion was then maintained for 7 hours with aCSF. The dialysates (30 μl) were collected into 300 μl vials, transferred into dry ice and then kept frozen (−80° C.) until analysis. Frozen samples were shipped to a partner for analysis. At the end of the microdialysis study, a PBS with colored ink was perfused through the probe in order to visualize the dialyzed area.
Catecholamine assay: Concentrations of dopamine, DOPAC, HVA, 5-HIAA, 5-HT, and norepinephrin were determined for each sample by HPLC coupled with electrochemical detection.

[1] = SON-117 3 mg/kg IP, T1 h 30-T2 h
[2] = SON-117 3 mg/kg IP, T1 h-T1 h 30
[3] = SON-117 3 mg/kg IP, T2 h 30-T3 h
[4] = SON-117 3 mg/kg IP, T2 h-T2 h 30
[5] = SON-117 3 mg/kg IP, T3 h 30-T4 h
[6] = SON-117 3 mg/kg IP, T3 h-T3 h 30
[7] = SON-117 3 mg/kg IP, T4 h 30-T5 h
[8] = SON-117 3 mg/kg IP, T4 h-T4 h 30
[9] = SON-117 3 mg/kg IP, T5 h 30-T6 h
[10] = SON-117 3 mg/kg IP, T5 h-T5 h 30
[11] = SON-117 3 mg/kg IP, T6 h 30-T7 h
[12] = SON-117 3 mg/kg IP, T6 h-T6 h 30

SMILES: Cc1nnc(-c2cc3c(OC[C@@H](O)CN4CCC(c5ccc(Cl)c(Cl)c5)CC4)cccc3o2)o1 [SON-117, (S)-1-(4-(3,4-dichlorophenyl)piperidino)-3-(2-(5-methyl-1,3,4-oxadiazol-2-yl)benzo(b)furan-4-yloxy)-2-propanol hydrochloride]
- HVA release (% of basal levels) measured in dialysates (SON-117 3 mg/kg IP, T30-T1 h): 87.52 % of basal levels and 80.65 % of basal levels and 76.40 % of basal levels and 105.83 % of basal levels and 105.61 % of basal levels and 95.14 % of basal levels and 127.36 % of basal levels and 107.87 % of basal levels
- HVA release (% of basal levels) measured in dialysates, MEAN [1]: 106.02 % of basal levels
- HVA release (% of basal levels) measured in dialysates [1]: 84.71 % of basal levels and 105.56 % of basal levels and 94.73 % of basal levels and 137.50 % of basal levels and 83.65 % of basal levels and 91.30 % of basal levels and 115.23 % of basal levels and 135.51 % of basal levels
- HVA release (% of basal levels) measured in dialysates, MEAN [2]: 103.62 % of basal levels
- HVA release (% of basal levels) measured in dialysates [2]: 91.12 % of basal levels and 84.36 % of basal levels and 104.08 % of basal levels and 126.08 % of basal levels and 106.58 % of basal levels and 89.86 % of basal levels and 137.31 % of basal levels and 89.55 % of basal levels
- HVA release (% of basal levels) measured in dialysates, MEAN [3]: 102.12 % of basal levels
- HVA release (% of basal levels) measured in dialysates [3]: 105.21 % of basal levels and 84.02 % of basal levels and 95.14 % of basal levels and 119.75 % of basal levels and 76.92 % of basal levels and 96.18 % of basal levels and 146.40 % of basal levels and 93.34 % of basal levels
- HVA release (% of basal levels) measured in dialysates, MEAN [4]: 98.10 % of basal levels
- HVA release (% of basal levels) measured in dialysates [4]: 100.40 % of basal levels and 90.71 % of basal levels and 80.00 % of basal levels and 109.73 % of basal levels and 85.44 % of basal levels and 89.46 % of basal levels and 133.10 % of basal levels and 95.93 % of basal levels
- HVA release (% of basal levels) measured in dialysates, MEAN [5]: 98.25 % of basal levels
- HVA release (% of basal levels) measured in dialysates [5]: 101.22 % of basal levels and 90.35 % of basal levels and 83.39 % of basal levels and 123.68 % of basal levels and 80.06 % of basal levels and 94.85 % of basal levels and 114.56 % of basal levels and 97.90 % of basal levels
- HVA release (% of basal levels) measured in dialysates, MEAN [6]: 105.01 % of basal levels
- HVA release (% of basal levels) measured in dialysates [6]: 99.13 % of basal levels and 88.16 % of basal levels and 98.47 % of basal levels and 148.68 % of basal levels and 75.12 % of basal levels and 89.56 % of basal levels and 118.49 % of basal levels and 122.51 % of basal levels
- HVA release (% of basal levels) measured in dialysates, MEAN [7]: 92.26 % of basal levels
- HVA release (% of basal levels) measured in dialysates [7]: 94.88 % of basal levels and 58.87 % of basal levels and 92.33 % of basal levels and 106.33 % of basal levels and 75.16 % of basal levels and 112.83 % of basal levels and 123.56 % of basal levels and 74.10 % of basal levels
- HVA release (% of basal levels) measured in dialysates, MEAN [8]: 99.19 % of basal levels
- HVA release (% of basal levels) measured in dialysates [8]: 97.33 % of basal levels and 77.20 % of basal levels and 84.63 % of basal levels and 137.16 % of basal levels and 71.70 % of basal levels and 91.93 % of basal levels and 127.61 % of basal levels and 105.99 % of basal levels
- HVA release (% of basal levels) measured in dialysates, MEAN [9]: 87.32 % of basal levels
- HVA release (% of basal levels) measured in dialysates [9]: 93.31 % of basal levels and 31.10 % of basal levels and 89.25 % of basal levels and 99.64 % of basal levels and 66.49 % of basal levels and 109.12 % of basal levels and 117.65 % of basal levels and 101.69 % of basal levels
- HVA release (% of basal levels) measured in dialysates, MEAN [10]: 101.76 % of basal levels
- HVA release (% of basal levels) measured in dialysates [10]: 93.67 % of basal levels and 56.56 % of basal levels and 102.66 % of basal levels and 106.92 % of basal levels and 69.24 % of basal levels and 112.81 % of basal levels and 133.42 % of basal levels and 138.83 % of basal levels
- HVA release (% of basal levels) measured in dialysates, MEAN [11]: 96.24 % of basal levels
- HVA release (% of basal levels) measured in dialysates [11]: 84.70 % of basal levels and 71.14 % of basal levels and 87.80 % of basal levels and 117.29 % of basal levels and 74.11 % of basal levels
- HVA release (% of basal levels) measured in dialysates, MEAN [12]: 88.31 % of basal levels
- HVA release (% of basal levels) measured in dialysates [12]: 71.80 % of basal levels and 62.19 % of basal levels and 96.42 % of basal levels and 114.78 % of basal levels and 75.15 % of basal levels and 95.54 % of basal levels and 102.27 % of basal levels
- HVA release (% of basal levels) measured in dialysates, MEAN (SON-117 3 mg/kg IP, T-30 min-T0 (pre-administration)): 97.66 % of basal levels
- HVA release (% of basal levels) measured in dialysates, MEAN (SON-117 3 mg/kg IP, T-1 h 30-T-1 h (pre-administration)): 99.26 % of basal levels
- HVA release (% of basal levels) measured in dialysates, MEAN (SON-117 3 mg/kg IP, T-1 h-T-30 min (pre-administration)): 103.08 % of basal levels
- HVA concentration in prefrontal cortex, significant slight increase (SON-117 3 mg/kg IP, at 3.5 h): 114%
- HVA, difference to the citalopram group (two-way ANOVA) (SON-117 at the three doses tested, in function of time): no significant differences
- HVA (% of respective basal) MEAN (T0-T30 min): 101.53 % of respective basal
- HVA (% of respective basal) MEAN (T30-T1 h): 118.07 % of respective basal
- HVA (% of respective basal) MEAN (T1 h 30-T2 h): 112.1 % of respective basal
- HVA (% of respective basal) MEAN (T1 h-T1 h 30): 139.45 % of respective basal
- HVA (% of respective basal) MEAN (T2 h 30-T3 h): 111.13 % of respective basal
- HVA (% of respective basal) MEAN (T2 h-T2 h 30): 107.76 % of respective basal
- HVA (% of respective basal) MEAN (T3 h 30-T4 h): 113.38 % of respective basal
- HVA (% of respective basal) MEAN (T3 h-T3 h 30): 106.61 % of respective basal
- HVA (% of respective basal) MEAN (T4 h 30-T5 h): 102.76 % of respective basal
- HVA (% of respective basal) MEAN (T4 h-T4 h 30): 127.17 % of respective basal
- HVA (% of respective basal) MEAN (T5 h 30-T6 h): 109.97 % of respective basal
- HVA (% of respective basal) MEAN (T5 h-T5 h 30): 112.73 % of respective basal
- HVA (% of respective basal) MEAN (T6 h 30-T7 h): 113.53 % of respective basal
- HVA (% of respective basal) MEAN (T6 h-T6 h 30): 108.85 % of respective basal
- HVA (% of respective basal) MEAN (T-30 min-T0 (before administration)): 101.64 % of respective basal
- HVA (% of respective basal) MEAN (T-1 h 30-T-1 h (before administration)): 97.88 % of respective basal
- HVA (% of respective basal) MEAN (T-1 h-T-30 min (before administration)): 100.48 % of respective basal
